According to ChEMBL document CHEMBL1156081, “Discovery of 4-functionalized phenyl-O-beta-D-glycosides as a new class of mushroom tyrosinase inhibitors” (Bioorg Med Chem Lett, 2009):
Each block holds one compound with its values, some of them ahead of it. The source made the active and inactive calls. The rule behind the calls is not given here.

Legend:
Tyrosinase = target: T1, Tyrosinase (Agaricus bisporus, UniProt O42713); test: Inhibition of mushroom tyrosinase
T1 sequence (O42713 whole entry): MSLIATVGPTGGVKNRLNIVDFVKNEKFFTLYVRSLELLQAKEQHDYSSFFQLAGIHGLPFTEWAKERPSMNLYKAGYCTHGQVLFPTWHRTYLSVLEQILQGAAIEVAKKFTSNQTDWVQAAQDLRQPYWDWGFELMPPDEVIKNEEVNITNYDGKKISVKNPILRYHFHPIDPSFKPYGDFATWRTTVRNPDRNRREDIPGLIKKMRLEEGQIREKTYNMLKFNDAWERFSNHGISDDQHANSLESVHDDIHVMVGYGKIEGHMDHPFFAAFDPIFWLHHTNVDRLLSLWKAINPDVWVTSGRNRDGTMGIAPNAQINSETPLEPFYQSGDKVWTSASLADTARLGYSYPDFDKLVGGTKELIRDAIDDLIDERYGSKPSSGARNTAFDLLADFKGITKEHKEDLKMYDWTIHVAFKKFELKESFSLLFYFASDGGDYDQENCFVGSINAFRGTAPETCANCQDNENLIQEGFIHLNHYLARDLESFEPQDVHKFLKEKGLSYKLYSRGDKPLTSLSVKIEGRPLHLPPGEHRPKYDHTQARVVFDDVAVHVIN

[1] = target: T2, Tyrosinase (Agaricus bisporus) (UniProt O42713); test: Inhibition of mushroom tyrosinase at 200 uM
T2 sequence (whole entry): T1 sequence (O42713 whole entry)

[2] = target: T2, Tyrosinase (Agaricus bisporus); test: Reversible inhibition of mushroom tyrosinase assessed as L-DOPA oxidation at 1.2 to 2.4 uM
[3] = target: T2, Tyrosinase (Agaricus bisporus); settings: 1.06 to 0.12 uM
Description: Competitive inhibition of mushroom tyrosinase assessed as L-DOPA oxidation at 1.06 to 0.12 uM by Lineweaver-Burke double reciprocal plot

[4] = target: T2, Tyrosinase (Agaricus bisporus); test: Competitive-uncompetitive mixed-2 type inhibition of mushroom tyrosinase assessed as L-DOPA oxidation at 0.05 to 0.10 uM by Lineweaver-Burke double reciprocal plot

Structure (SMILES): CO/N=C\c1ccc(O[C@@H]2O[C@H](COC(C)=O)[C@@H](O[C@@H]3O[C@H](COC(C)=O)[C@H](OC(C)=O)[C@H](OC(C)=O)[C@H]3OC(C)=O)[C@H](OC(C)=O)[C@H]2OC(C)=O)cc1
- IC50 (Tyrosinase): > 200 µM
- inhibition [1]: inactive

Structure (SMILES): O=Cc1ccc(O[C@@H]2OC[C@@H](OC(=O)c3ccccc3)[C@H](OC(=O)c3ccccc3)[C@H]2OC(=O)c2ccccc2)cc1
- inhibition [1]: inactive

Structure (SMILES): CC(=O)OC[C@H]1O[C@@H](Oc2ccc(C=O)cc2)[C@H](OC(C)=O)[C@@H](OC(C)=O)[C@H]1OC(C)=O
- inhibition [1]: inactive

Structure (SMILES): NC(=S)N/N=C\c1ccc(O[C@@H]2O[C@H](COC(=O)c3ccccc3)[C@@H](OC(=O)c3ccccc3)[C@@H](OC(=O)c3ccccc3)[C@H]2OC(=O)c2ccccc2)cc1
- IC50 (Tyrosinase): 52.8 µM

Structure (SMILES): O=Cc1ccc(O[C@@H]2O[C@H](COC(=O)c3ccccc3)[C@@H](OC(=O)c3ccccc3)[C@@H](OC(=O)c3ccccc3)[C@H]2OC(=O)c2ccccc2)cc1
- inhibition [1]: inactive

Structure (SMILES): NC(=S)N/N=C\c1ccc(O[C@@H]2OC[C@@H](OC(=O)c3ccccc3)[C@H](OC(=O)c3ccccc3)[C@H]2OC(=O)c2ccccc2)cc1
- IC50 (Tyrosinase): 36.5 µM

Structure (SMILES): CO/N=C\c1ccc(O[C@@H]2OC[C@@H](OC(=O)c3ccccc3)[C@H](OC(=O)c3ccccc3)[C@H]2OC(=O)c2ccccc2)cc1
- IC50 (Tyrosinase): > 200 µM
- inhibition [1]: inactive

Structure (SMILES): CC(=O)OC[C@H]1O[C@@H](Oc2ccc(C=O)cc2)[C@H](OC(C)=O)[C@@H](OC(C)=O)[C@@H]1OC(C)=O
- inhibition [1]: inactive

Structure (SMILES): CC(=O)OC[C@H]1O[C@@H](O[C@H]2[C@H](OC(C)=O)[C@@H](OC(C)=O)[C@H](Oc3ccc(/C=N\O)cc3)O[C@@H]2COC(C)=O)[C@H](OC(C)=O)[C@@H](OC(C)=O)[C@H]1OC(C)=O
- IC50 (Tyrosinase): > 200 µM
- inhibition [1]: inactive

Structure (SMILES): CO/N=C\c1ccc(O[C@@H]2O[C@H](COC(C)=O)[C@@H](OC(C)=O)[C@@H](OC(C)=O)[C@H]2OC(C)=O)cc1
- IC50 (Tyrosinase): > 200 µM
- inhibition [1]: inactive

Structure (SMILES): CO/N=C\c1ccc(O[C@@H]2O[C@H](COC(C)=O)[C@H](OC(C)=O)[C@H](OC(C)=O)[C@H]2OC(C)=O)cc1
- IC50 (Tyrosinase): > 200 µM
- inhibition [1]: inactive

Structure (SMILES): CC(=O)OC[C@H]1O[C@@H](O[C@H]2[C@H](OC(C)=O)[C@@H](OC(C)=O)[C@H](Oc3ccc(/C=N\NC(N)=S)cc3)O[C@@H]2COC(C)=O)[C@H](OC(C)=O)[C@@H](OC(C)=O)[C@H]1OC(C)=O
- IC50 (Tyrosinase): 0.65 µM
- inhibition [2]: Active
- inhibition [4]: Active

Structure (SMILES): O=C(O[C@@H]1[C@@H](OC(=O)c2ccccc2)[C@H](Oc2ccc(/C=N\O)cc2)OC[C@H]1OC(=O)c1ccccc1)c1ccccc1
- IC50 (Tyrosinase): > 200 µM
- inhibition [1]: inactive

Structure (SMILES): CO/N=C\c1ccc(O[C@@H]2O[C@H](COC(=O)c3ccccc3)[C@@H](OC(=O)c3ccccc3)[C@@H](OC(=O)c3ccccc3)[C@H]2OC(=O)c2ccccc2)cc1
- IC50 (Tyrosinase): > 200 µM
- inhibition [1]: inactive

Structure (SMILES): O=C(OC[C@H]1O[C@@H](Oc2ccc(/C=N\O)cc2)[C@H](OC(=O)c2ccccc2)[C@H](OC(=O)c2ccccc2)[C@@H]1OC(=O)c1ccccc1)c1ccccc1
- IC50 (Tyrosinase): > 200 µM
- inhibition [1]: inactive

Structure (SMILES): CO/N=C\c1ccc(O[C@@H]2O[C@H](COC(C)=O)[C@@H](OC(C)=O)[C@H](OC(C)=O)[C@H]2OC(C)=O)cc1
- IC50 (Tyrosinase): > 200 µM
- inhibition [1]: inactive

Second part, the compound after the results:

- IC50 (Tyrosinase): > 200 µM
- inhibition [1]: inactive
Structure (SMILES): CC(=O)OC[C@H]1O[C@@H](Oc2ccc(/C=N\O)cc2)[C@H](OC(C)=O)[C@@H](OC(C)=O)[C@@H]1OC(C)=O

- IC50 (Tyrosinase): 0.31 µM
- inhibition [2]: Active
- inhibition [3]: Active
Structure (SMILES): CC(=O)OC[C@H]1O[C@@H](Oc2ccc(/C=N\NC(N)=S)cc2)[C@H](OC(C)=O)[C@@H](OC(C)=O)[C@@H]1OC(C)=O

- IC50 (Tyrosinase): > 200 µM
- inhibition [1]: inactive
Structure (SMILES): CC(=O)OC[C@H]1O[C@@H](Oc2ccc(/C=N\O)cc2)[C@H](OC(C)=O)[C@H](OC(C)=O)[C@@H]1OC(C)=O

- IC50 (Tyrosinase): > 200 µM
- inhibition [1]: inactive
Structure (SMILES): OC[C@H]1O[C@@H](Oc2ccc(/C=N\O)cc2)[C@H](O)[C@@H](O)[C@@H]1O

- IC50 (Tyrosinase): 3.61 µM
Structure (SMILES): NC(=S)N/N=C\c1ccc(O[C@@H]2O[C@H](CO)[C@@H](O)[C@@H](O)[C@H]2O)cc1

- IC50 (Tyrosinase): > 200 µM
- inhibition [1]: inactive
Structure (SMILES): CO/N=C\c1ccc(O[C@@H]2O[C@H](CO)[C@@H](O)[C@@H](O)[C@H]2O)cc1

- IC50 (Tyrosinase): 0.41 µM
Structure (SMILES): CC(=O)OC[C@H]1O[C@@H](Oc2ccc(/C=N\NC(N)=S)cc2)[C@H](OC(C)=O)[C@@H](OC(C)=O)[C@H]1OC(C)=O

- IC50 (Tyrosinase): 0.3 µM
Structure (SMILES): CCO/N=C\c1ccc(O)c(O)c1

- IC50 (Tyrosinase): 2.96 µM
Structure (SMILES): NC(=S)N/N=C\c1ccc(O[C@@H]2O[C@H](CO)[C@@H](O)[C@H](O)[C@H]2O)cc1

- IC50 (Tyrosinase): > 200 µM
- inhibition [1]: inactive
Structure (SMILES): CO/N=C\c1ccc(O[C@@H]2O[C@H](CO)[C@@H](O)[C@H](O)[C@H]2O)cc1

- inhibition [1]: inactive
Structure (SMILES): O=Cc1ccc(O[C@@H]2O[C@H](CO)[C@@H](O)[C@H](O)[C@H]2O)cc1

- IC50 (Tyrosinase): 3.41 µM
Structure (SMILES): CC(=O)OC[C@H]1O[C@@H](Oc2ccc(/C=N\NC(N)=S)cc2)[C@H](OC(C)=O)[C@H](OC(C)=O)[C@@H]1OC(C)=O

- inhibition [1]: inactive
Structure (SMILES): O=Cc1ccc(O[C@@H]2O[C@H](CO)[C@@H](O)[C@@H](O)[C@H]2O)cc1

- IC50 (Tyrosinase): > 200 µM
- inhibition [1]: inactive
Structure (SMILES): OC[C@H]1O[C@@H](Oc2ccc(/C=N\O)cc2)[C@H](O)[C@H](O)[C@@H]1O

- IC50 (Tyrosinase): > 200 µM
- inhibition [1]: inactive
Structure (SMILES): CC(=O)OC[C@H]1O[C@@H](Oc2ccc(/C=N\O)cc2)[C@H](OC(C)=O)[C@@H](OC(C)=O)[C@H]1OC(C)=O

- inhibition [1]: inactive
Structure (SMILES): CC(=O)OC[C@H]1O[C@@H](Oc2ccc(C=O)cc2)[C@H](OC(C)=O)[C@H](OC(C)=O)[C@@H]1OC(C)=O
